Results on 1 sequence are retold here after US20250170212A1, “COMPOSITIONS AND METHODS OF TREATING AMYOTROPHIC LATERAL SCLEROSIS (ALS) AND RELATED DISORDERS” (BIOINCEPT, LLC, priority 2022, published 2025).

Assay [1] relates to transgenic SOD1^G93A mice. As to the kind of experiment: Hanging wire test (neuromuscular strength and coordination). The class given is in vivo, mouse. The following applies: weekly from day 0, drug groups with mGRPs. As to the method: To assess the motor capacity of our treatment groups, motor skills assays were performed. Starting at day −7 SOD1^G93A mice (n=30) were trained in hanging wire. Animals were trained 3 times a week in 2 days interval. Weekly measurements were performed starting at day 0 until the end of the experiment. Hanging wire test was used to test neuromuscular strength and coordination. Briefly, mice were hung on a wire and had to catch the wire both by upper and lower limbs as well as tangle it with tail in order to move the whole distance towards a stick (repeated three times for each mouse and obtaining an average). Maximum points (1.5 point) were given when mice performed the task. […] A poor score (<0.66 points) was given when a mouse was unable to move the whole distance and the amount of time for which mice were able to hang on the wire (1 sec=0.016 points) was counted. […]
All quantifications were performed including the manual cell counts in a blinded manner. The NeuN and Ibal were counted as positive cells in the ROI (see above) as previously reported. The number of cells was determined by unbiased counting of positive cells. […] Differences between groups were analyzed using a repeated measure ANOVA model with a fixed effect for the group, of the time and a random intercept for the mouse. […] The statistical significance at p<0.05 was then determined.

Assay [2] deals with Iba1+ cells (microglial activation). As to the kind of experiment: Immunohistochemistry of microglial cells in brainstem motor nuclei. Type of assay: in vivo, mouse. The following applies: facial and hypoglossal motor nuclei; compared to Injury. As for the experimental part:
At the end of experiment, mice were subjected to full body perfusion with 20% sucrose and 10% buffered formalin suitable for histology assays (Sigma Aldrich, St.Louis, MO, USA). Mice were decapitated and incubated in formalin for 24 h. Following the tissues (brain and spinal cord) were isolated, paraffin fixed for further analyses. After brain removal, the tissue was fixed in a formaldehyde solution (4%) for 2-4 hours at RT followed by 4° C. for a total time of 24-48 hours. Fixed tissues were embedded in paraffin and finally sectioned into 7 μm slices. […]
Assessment of neuronal and microglial positive cells were performed in the region of interest (ROI). […] The images were analyzed and reconstructed using Image J (US National Institutes of Health).
All quantifications were performed including the manual cell counts in a blinded manner. The NeuN and Ibal were counted as positive cells in the ROI (see above) as previously reported. The number of cells was determined by unbiased counting of positive cells. […] Differences between groups were analyzed using a repeated measure ANOVA model with a fixed effect for the group, of the time and a random intercept for the mouse. In a second, more explorative, approach for each group the time when the physical activity was first measured below a certain threshold was determined. […]

The subject of assay [3] is experimental autoimmune encephalomyelitis. The following applies: murine EAE models; cited from earlier work.

“Also recorded” adds a separate entry of the source.

On to MVRIKPGSANKPSDD [sPIF], for which the “motor performance in hanging wire test (early motor impairment)” value in assay [1] was “significant delay of early motor impairment; also recorded: significant improvement of motor outcome”. In addition, the “number of Iba1+ microglial cells (neuroinflammation)” value in assay [2] is reported as “significant prevention of neuroinflammation”. Also, the paralysis and myelination entry in assay [3] is “reverse and prevent paralysis and restore myelination”.
